Results as given in ChEMBL document CHEMBL5154891, “Discovery of AZD4625, a Covalent Allosteric Inhibitor of the Mutant GTPase KRASG12C” (J Med Chem, 2022).
The source made the active and inactive calls. The rule behind the calls is not given here.

How the values were obtained:
[1] = in vitro; details: human, liver microsomes, CLH
[2] = Metabolic stability in rat hepatocytes assessed as intrinsic clearance per 10^6 cells at 5 uM measured after 60 mins by UHPLC/UV/MS/MS; format: ADME, cell-based, Hepatocyte; details: for hepatocyte CLint at 5 µM: read-out: CLH
[3] = Hepatic blood flow in CD-1 mouse; format: ADME
[4] = Hepatic blood flow in Wistar Han rat; format: ADME
[5] = target: Ribosomal protein S6 kinase alpha-1 (Homo sapiens, UniProt Q15418, G12C); assay: Inhibition of p90RSK phosphorylation in human NCI-H358 cells harboring KRAS G12C mutant measured for 2 hrs by immunofluorescence assay; format: cell-based
[6] = Toxicity in athymic nude-Foxn1nu mouse xenografted with human MIA PaCa-2 cells assessed as tolerability at 4 to 100 mg/kg, po administered for 21 days; format: organism-based; details: in vivo, 504 h, dose 4-100 mg/kg, time 21 day
[7] = Lipophilicity, log D of the compound at pH 7.4; details: buffer, pH 7.4, logD
[8] = Hepatic blood flow in Beagle dog; format: ADME, Canis lupus familiaris
[9] = target: T1, Oxidation resistance protein 1 (Homo sapiens) (UniProt Q8N573); assay: Binding affinity to OXR1 in human […] cell lysate assessed as trypsin-mediated biotinylated cysteine residues digestion by measuring reduction in protein level at 4 uM pretreated for 2 hrs followed by labelled with iodoacetamide-desthiobiotin by MS analysis relative to control; format: subcellular; details: NCI-H358
T1 sequence (whole entry): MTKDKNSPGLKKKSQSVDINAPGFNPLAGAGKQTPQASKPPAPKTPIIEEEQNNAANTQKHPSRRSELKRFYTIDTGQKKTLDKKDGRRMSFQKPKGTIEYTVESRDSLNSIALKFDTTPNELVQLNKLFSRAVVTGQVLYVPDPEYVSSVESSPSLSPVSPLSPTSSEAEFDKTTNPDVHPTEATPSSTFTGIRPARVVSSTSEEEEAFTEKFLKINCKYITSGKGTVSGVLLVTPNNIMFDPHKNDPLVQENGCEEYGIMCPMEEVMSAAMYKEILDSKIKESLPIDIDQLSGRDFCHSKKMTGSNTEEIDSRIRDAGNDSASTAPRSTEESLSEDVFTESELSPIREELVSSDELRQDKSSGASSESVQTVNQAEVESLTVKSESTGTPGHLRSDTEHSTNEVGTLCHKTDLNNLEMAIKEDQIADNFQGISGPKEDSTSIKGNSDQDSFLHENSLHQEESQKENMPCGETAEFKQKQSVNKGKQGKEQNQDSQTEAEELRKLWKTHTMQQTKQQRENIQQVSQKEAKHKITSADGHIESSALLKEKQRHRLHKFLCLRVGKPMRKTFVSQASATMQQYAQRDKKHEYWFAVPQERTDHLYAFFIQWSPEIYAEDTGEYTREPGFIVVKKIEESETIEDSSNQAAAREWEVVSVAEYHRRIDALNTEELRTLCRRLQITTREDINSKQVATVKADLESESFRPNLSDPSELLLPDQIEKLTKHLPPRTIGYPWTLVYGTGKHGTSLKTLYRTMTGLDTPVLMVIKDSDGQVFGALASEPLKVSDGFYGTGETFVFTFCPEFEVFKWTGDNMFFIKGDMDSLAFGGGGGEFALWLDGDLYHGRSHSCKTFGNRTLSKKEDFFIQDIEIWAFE

[10] = Metabolic stability in human Hepatocyte assessed as intrinsic clearance measured per 10^6 cells; format: ADME, cell-based; details: hepatocytes, read-out: CLH
[11] = target: GTPase KRas (Homo sapiens, UniProt P01116, G12C); assay: Inhibition of C-terminal Avi and 6His-tagged human KRAS 2B G12C mutant (1 to 166 residues) expressed in Escherichia coli BL21 (DE3) assessed as inhibition of SOS mediated nucleotide exchange preincubated for 4 hrs followed by SOS1 addition by HTRF assay
[12] = target: T2, Ribosomal protein S6 kinase alpha-1 (Homo sapiens, UniProt Q15418); assay: Inhibition of p90RSK phosphorylation in human Calu-6 cells harboring KRAS Q61K measured for 2 hrs by immunofluorescence assay; format: cell-based
[13] = Inhibition of spheroid proliferation in human NCI-H358 cells harboring KRAS G12C mutant measured after 6 days by CellTiter-Glo assay; format: functional, cell-based; details: NCI-H358, 144 h
[14] = system: Mus musculus; assay: In vivo inhibition of RAS/MAPK pathway in human MIA PaCa-2 cells harbouring KRAS G12C mutant xenografted in athymic nude Foxn1 nu mouse assessed as reduction in DUSP6 expression measured at 3 to 6 hrs post dose; format: functional; details: dose 4-100 mg/kg, time 3-6 hrs, DDE = dose-dependent effect
[15] = system: MIA PaCa-2; assay: Antitumor activity against human MIA PaCa-2 cells harbouring KRAS G12C mutant xenografted in athymic nude Foxn1 nu mouse assessed as tumor regression at 100 mg/kg, po administered daily for 21 days and measured twice weekly by caliper analysis; format: functional, organism-based; details: time 21.0 day
[16] = Bioavailability in Han Wistar rat at 2 micromol/kg, po and 1 umol/kg, iv; format: ADME, organism-based; details: in vivo; for bioavailability: Han Wistar, 2 µmol/kg
[17] = target: Elongation factor 2 (Homo sapiens) (UniProt P13639); assay: Binding affinity to EEF2 in human […] cell lysate assessed as trypsin-mediated biotinylated cysteine residues digestion by measuring reduction in protein level at 4 uM pretreated for 2 hrs followed by labelled with iodoacetamide-desthiobiotin by MS analysis relative to control; format: subcellular; details: NCI-H358
[18] = system: A549; assay: Inhibition of spheroid proliferation in human A549 cells […] measured after 6 days by CellTiter-Glo assay; format: functional, cell-based; details: A549, 144 h
[19] = target: T2, Ribosomal protein S6 kinase alpha-1; assay: Inhibition of p90RSK phosphorylation in human PC-9 cells measured for 2 hrs by immunofluorescence assay; format: cell-based
[20] = Drug metabolism in human hepatocyte assessed as oxidative metabolism; format: ADME, cell-based; details: hepatocytes, 1 h, time 60 min
[21] = Stability in mouse whole blood; format: ADME, tissue-based
[22] = Stability in rat whole blood; format: ADME, tissue-based
[23] = Stability in monkey whole blood; format: ADME, tissue-based, Macaca mulatta; details: rhesus monkey
[24] = Stability in dog whole blood; format: ADME, tissue-based, Canis lupus familiaris

| microsomal CLint at 1 h, 5 µM [1] [µL/min/mg] | hepatocyte CLint at 5 µM [2] [µL/min/1e6 cells] | logD [7] | IC50 [11] [nM] | bioavailability [16] [%] | Structure (SMILES) | other results |
| --- | --- | --- | --- | --- | --- | --- |
| 58 | 109 | – | – | – | C=CC(=O)N1CCN2c3ncnc4cc(-c5c(C)ccc6[nH]ncc56)c(Cl)c(c34)OC[C@@H]2C1 (atropisomer aS) | – |
| 13 | 79 | 2.9 | 19 | 0 | C=CC(=O)N1CCN2c3ncnc4c(F)c(-c5c(O)cccc5F)c(Cl)c(c34)OC[C@@H]2C1 | Stability [21]: Unstable; Stability [22]: Unstable; Stability [23]: Unstable; Stability [24]: Unstable |
| 66 | 99 | 2.7 | < 5 | 36 | C=CC(=O)N1CCN2c3ncnc4c(F)c(-c5c(O)cccc5F)c(Cl)c(c34)OCC[C@H]2C1 | hepatocyte CLint [10]: 12 µL/min/1e6 cells |
| 192 | 50 | 3.4 | 15500 | – | C=CC(=O)N1CCN2c3ncnc4cc(-c5c(C)ccc6[nH]ncc56)c(Cl)c(c34)OCC[C@@H]2C1 (single isomer, unassigned; atropisomer 1) | – |
| – | – | – | 64 | – | C=CC(=O)N1C[C@H]2COc3c(Cl)c(-c4c(O)cccc4F)c(F)c4ncnc(c34)N2C[C@H]1C (stereo in doubt; 32) | CLint_hep ([2]; 1 h, 5 µM): 43 uL/min/1e6 cells; GI50 ([13]; time 6 day): 284 nM; F ([16]; po, at 2 µmol/kg): 31% |

The next lines start with the molecule.

| Structure (SMILES) | microsomal CLint at 1 h, 5 µM [1] [µL/min/mg] | hepatocyte CLint at 5 µM [2] [µL/min/1e6 cells] | logD [7] | IC50 [11] [nM] | bioavailability [16] [%] | other results |
| --- | --- | --- | --- | --- | --- | --- |
| C=CC(=O)N1C[C@@H]2CCOc3c(Cl)c(-c4c(O)cccc4F)c(F)c4ncnc(c34)N2C[C@H]1C | 28 | 40 | 3.2 | 3 | 75 | QH [3]: 152 mL/min/kg; QH [4]: 72 mL/min/kg; IC50 [5]: 36 nM; Activity [6]: Non-Toxic; QH [8]: 55 mL/min/kg; Activity [9]: Active; hepatocyte CLint [10]: < 2 µL/min/1e6 cells; IC50 [12]: > 30000 nM; IC50 [13]: 4.1 nM; Activity [14]: Dde; Activity [15]: Active; Activity [17]: Active; IC50 [18]: 1670 nM; IC50 [19]: 4950 nM |
| C=CC(=O)N1CCN2c3ncnc4cc(-c5c(C)ccc6[nH]ncc56)c(Cl)c(c34)OCC[C@H]2C1 (single isomer, unassigned; atropisomer 2) | 189 | 46 | 3.4 | 9 | 16 | Drug metabolism [20]: Metabolite_Detected; hepatocyte CLint [10]: 20 µL/min/1e6 cells |
| C=CC(=O)N1C[C@H]2COc3c(Cl)c(-c4c(O)cccc4F)c(F)c4ncnc(c34)N2C[C@@H]1C | 110 | 238 | 3.4 | 135 | 31 | – |
| C=CC(=O)N1C[C@@H]2CCOc3c(Cl)c(-c4c(O)cccc4F)c(F)c4ncnc(c34)N2C[C@@H]1C | 203 | 143 | 3.2 | 138 | 51 | – |
| C=CC(=O)N1CCN(c2ncnc3cc(-c4c(C)ccc5[nH]ncc45)c(Cl)cc23)CC1 | 38 | 56 | 3.5 | – | – | – |
| C=CC(=O)N1CCN2c3ncnc4cc(-c5c(C)ccc6[nH]ncc56)c(Cl)c(c34)OC[C@@H]2C1 (single isomer, unassigned; atropisomer 2) | – | – | – | 27100 | – | – |
| C=CC(=O)N1CCN2c3ncnc4cc(-c5c(C)ccc6[nH]ncc56)c(Cl)c(c34)OC[C@H]2C1 (single isomer, unassigned; atropisomer 2) | – | – | – | 17800 | – | – |
| C=CC(=O)N1CCN2c3ncnc4cc(-c5c(C)ccc6[nH]ncc56)c(Cl)c(c34)OC[C@H]2C1 (atropisomer aR) | – | – | – | 171 | – | – |
| C=CC(=O)N1C[C@H]2COc3c(Cl)c(-c4c(O)cccc4F)c(F)c4ncnc(c34)N2C[C@H]1C (stereo in doubt; 30) | 24 | 64 | 3.2 | 117 | 28 | – |
